In patent US5192784A, “Etanidazole injectable solution” (Du Pont Merck Pharmaceutical Company, priority 1992, dated 1993):
Converted amounts (≈) assume the structure as drawn.

Tests used:
[1] = Effect of ionic strength on rate of decomposition in 0.1M acetate, pH 5.0, 80° C.; format: physicochemical
Method: (§1) The k values shown in Tables 1-5 and FIG. 1 should be multipled by a factor of 2.303 to provide the actual k value.
(§2) The chemical stability of etanidazole was evaluated in solutions of varying composition stored at 80° C. Etanidazole was placed into suitable containers and sufficient buffer was added to result in a 1 mg/ml solution. A constant ionic strength of 0.3 was maintained with potassium chloride. All solutions were prepared in triplicate. The solution was divided into 2 ml sealed glass vials and was placed into cardboard storage boxes to protect the compound from light. At appropriate intervals, samples were removed from the stability chamber and cooled to room temperature. An aliquot of the sample was diluted with mobile phase containing internal standard prior to HPLC analysis. For those pH conditions where degradation was rapid, the sample aliquot was immediately quenched to neutral pH and room temperature.
(§3) Data were analyzed using methods as described by Martin et al. in "Physical Pharmacy", 3rd ed, pp 352-395 (1983).
The impact of the ionic strength of the buffer system on the rate of decomposition was examined in 0.1M acetate, pH 5.0, at 80° C. Ionic strengths of 0.15, 0.30 and 0.60 were employed.

[2] = Crystal formation on storage at 4° C., autoclaved vs non-autoclaved (reheated samples); format: physicochemical
Method: Sixteen samples of etanidazole solutions at various pHs, which contained crystals, were heated in a 56° C. water bath for 1 hour to dissolve the crystals. After heating, the samples were divided evenly.

[3] = Effect of autoclaving on crystal formation at 4° C. over 43 days, pH 3.0, 3.5 and 4.0; format: physicochemical; settings: for samples that developed crystals: 50 mg/ml
Method: Further studies were done in which etanidazole (50 mg/ml) solutions at pH 3.0, 3.5, and 4.0 were prepared and the effect of autoclaving was evaluated. At pH 3.0, 0 of 48 autoclaved samples and 0 of 48 non-autoclaved samples developed crystals when stored at 4° C. over 43 days. At pH 3.5, 0 of 49 autoclaved samples developed crystals, and 3 of 50 non-autoclaved samples developed crystals when stored at 4° C. over 43 days. At pH 4.0, 0 of 50 autoclaved samples developed crystals when stored at 4° C. for 43 days, but 1 of 50 non-autoclaved samples developed crystals.

[4] = Equilibrium solubility of etanidazole in 0.05M acetate or citrate buffers at pH 4.0 with additives; format: physicochemical; settings: for solubility: mean ± SD, read-out: Solubility at 4° C.
Method: Equilibrium solubility of etanidazole in 0.05M acetate or citrate buffers at pH 4.0 and the effects of additives were determined.

[5] = Effect of initial etanidazole concentration on rate of decomposition in 0.05M citrate pH 5.5, 80° C.; format: physicochemical
Method: as §1, §2, §3
The effect of initial etanidazole concentration on the rate of decomposition was examined in 0.05M citrate pH 5.5, at 80° C. Initial concentrations of 1, 25 and 50 mg/ml were employed.

[6] = Effects of additives on apparent solubility / crystallization of etanidazole solutions; format: physicochemical; settings: for time to formation of crystalline material: excess or 150 mg/ml
Method: The effects of additives on the apparent solubility of etanidazole were evaluated. […] Possible effects of additives are to inhibit the crystallization of etanidazole hydrate and to solubilize etanidazole hydrate.
Solutions were mixed by rotating end-to-end for 72 hours at room temperature. […] These were placed in 4° C. storage. […] In the case of solutions containing 1% ethanolamine or 0.1% diethanolamine as additives and excess or 150 mg/ml etanidazole, crystalline material had found within 24 hours at room temperature, but the 50 mg/ml and 100 mg/ml solutions remained clear at room temperature for 72 hours. These samples were placed at 4° C. […] After 2 months at 4° C., 1 of the 3 vials remained free of crystals. The 50 mg/ml etanidazole solution with 0.1% diethanolamine remained clear for at least 2 months at 4° C.

Method for physchem: Solubility studies were carried out by placing excess etanidazole into a suitable container and rotating end-to-end for twenty four hours at 25° C. The suspension was passed through a 0.2μ filter with the first portion discarded to ensure saturation of the filter. An aliquot of the filtrate was diluted and analyzed by HPLC and the remainder of the filtrate was employed for pH determination.

kobs, observed first-order rate constant ([1]; ionic strength 0.15, 0.1M acetate pH 5.0, 80° C.): 0.0059 ± 0.000108 day⁻¹
kobs, observed first-order rate constant ([1]; ionic strength 0.30, 0.1M acetate pH 5.0, 80° C.): 0.00516 ± 0.000104 day⁻¹
kobs, observed first-order rate constant ([1]; ionic strength 0.60, 0.1M acetate pH 5.0, 80° C.): 0.00518 ± 0.000306 day⁻¹
non-autoclaved samples containing crystals again ([2]; various pHs, heated 56° C. 1 hour, then 4 days at 4° C.): 3 of 8
samples that developed crystals ([3]; pH 3.0, autoclaved, 4° C. over 43 days): 0 of 48
samples that developed crystals ([3]; pH 3.0, non-autoclaved, 4° C. over 43 days): 0 of 48
samples that developed crystals ([3]; pH 3.5, autoclaved, 4° C. over 43 days): 0 of 49
samples that developed crystals ([3]; pH 3.5, non-autoclaved, 4° C. over 43 days): 3 of 50
samples that developed crystals ([3]; pH 4.0, autoclaved, 4° C. for 43 days): 0 of 50
samples that developed crystals ([3]; pH 4.0, non-autoclaved, 4° C., 43 days): 1 of 50
solubility ([4]; 0.05m acetate buffer, aqueous buffer, acetate 0.05M pH 4.0, no additive): 83.4 ± 26.3 mg/mL (≈ 389 mM)
solubility ([4]; 0.05m acetate buffer, acetate 0.05M pH 4.0, 0.065% Imidazole): 64.8 ± 32.1 mg/mL (≈ 303 mM)
solubility ([4]; 0.05m acetate buffer, acetate 0.05M pH 4.0, 0.13% Ethylenediamine): 54.8 ± 30.9 mg/mL (≈ 256 mM)
solubility ([4]; 0.05m citrate buffer, aqueous buffer, citrate 0.05M pH 4.0, no additive): 36.6 ± 6.4 mg/mL (≈ 171 mM)
solubility ([4]; 0.05m citrate buffer, citrate 0.05M pH 4.0, 0.065% Imidazole): 95.4 ± 3.7 mg/mL (≈ 445 mM)
solubility ([4]; 0.05m citrate buffer, citrate 0.05M pH 4.0, 0.13% Ethylenediamine): 61.5 ± 33.9 mg/mL (≈ 287 mM)
solubility (physchem; initial dissolved concentration (before crystals appeared)): > 150 mg/mL
solubility at 24 h (physchem; solubility): 59.2 to 71.7 mg/mL (≈ 276 to 335 mM)
solubility at 24 h (physchem; water, pH 6.5, water, solubility in water): 68.1 mg/mL (≈ 318 mM)
kobs, observed first-order rate constant ([5]; initial concentration 1 mg/ml): 0.00957 ± 7.37e-05 day⁻¹
kobs, observed first-order rate constant ([5]; initial concentration 25 mg/ml): 0.0127 ± 0.000586 day⁻¹
kobs, observed first-order rate constant ([5]; initial concentration 50 mg/ml): 0.0127 ± 0.000153 day⁻¹
time solution remained clear ([6]; 0.1% diethanolamine, 50 mg/ml, 4° C.): at least 2 months
time solution remained clear ([6]; 0.1% diethanolamine, 50 mg/ml, room temperature): 72 h
vials that remained free of crystals ([6]; 0.1% diethanolamine, 100 mg/ml, 4° C., after 2 months): 1 of the 3
vials showing crystallization ([6]; 0.1% diethanolamine, 100 mg/ml, 4° C., within 24 hours): 1 of 3
time solution remained clear ([6]; 0.1% diethanolamine, 100 mg/ml, room temperature): 72 h
time to formation of crystalline material ([6]; 0.1% diethanolamine, room temperature): ≤ 24 h
time solution remained clear ([6]; 1% ethanolamine, 50 mg/ml, 4° C.): at least 1 month
time solution remained clear ([6]; 1% ethanolamine, 50 mg/ml, room temperature): 72 h
time to crystallization ([6]; 1% ethanolamine, 100 mg/ml, 4° C.): ≤ 24 h
time solution remained clear ([6]; 1% ethanolamine, 100 mg/ml, room temperature): 72 h
time to formation of crystalline material ([6]; 1% ethanolamine, room temperature): ≤ 24 h
time solution remained clear ([6]; 1% imidazole, 50 mg/ml, 4° C. (up to)): up to 1 month
time solution remained clear ([6]; 1% imidazole, 100 mg/ml, 4° C. (up to)): up to 1 month
time to crystal formation ([6]; 1% imidazole, 150 mg/ml, 4° C.): ≤ 2 h
appearance of solution ([6]; 1% imidazole, up to 150 mg/ml etanidazole, room temperature, 72 hours): remained clear and free of particulates
SMILES: O=C(Cn1ccnc1[N+](=O)[O-])NCCO [Etanidazole]
effect of ionic strength on degradation rate ([1]; 0.15, 0.30 and 0.60, 0.1M acetate pH 5.0, 80° C.): negligible effect on the degradation rate
crystalline particulates on storage ([2]; 50 mg/ml, aqueous buffer, 4° C.): occasionally develop crystalline particulates
effect of autoclaving on crystal formation ([3]; subsequent storage at 4° C.): autoclaving prevents the formation of crystals
effect of imidazole on etanidazole solubility ([4]; citrate buffer, pH 4.0, 4° C.): Imidazole increased etanidazole solubility in citrate buffer
effect of initial concentration on degradation ([5]; 1, 25 and 50 mg/ml): not concentration dependent in this range
solid form of excess solid ([6]; 1% imidazole and excess etanidazole, 72 hours, room temperature): appeared to have been converted to etanidazole hydrate
effect of additives on etanidazole solutions ([6]; imidazole, ethanolamine, diethanolamine, room temperature or 4° C.): these additives stabilize etanidazole solutions, inhibiting crystal formation
